From patent publication US7345070B2, “Peroxisome proliferator activated receptor agonists” (Eli Lilly and Company, priority 2000, dated 2008)

Assays:
huPPARα = experiment: Cotransfection assay in CV-1 cells, huPPARα; type: cell-based, human; conditions: GAL4 chimeric system, relative to PPARα agonist reference molecule
Description: DNA-dependent binding (ABCD binding) was carried out using SPA technology with PPAR receptors. Tritium-labeled PPARα and PPARγ agonists were used as radioligands for generating displacement curves and IC50 values with compounds of the invention. Cotransfection assays were carried out in CV-1 cells. The reporter plasmid contained an acylCoA oxidase (AOX) PPRE and TK promoter upstream of the luciferase reporter cDNA. Appropriate PPARs and RXRα were constitutively expressed using plasmids containing the CMV promoter. […] In order to eliminate such interference, a GAL4 chimeric system was used in which the DNA binding domain of the transfected PPAR was replaced by that of GAL4, and the GAL4 response element was utilized in place of the AOX PPRE. Cotransfection efficacy was determined relative to PPARα agonist and PPARγ agonist reference molecules. Efficacies were determined by computer fit to a concentration-response curve, or in some cases at a single high concentration of agonist (10 μM). For binding or cotransfection studies with receptors other than PPARs, similar assays were carried out using appropriate ligands, receptors, reporter constructs, etc., for that particular receptor.
These studies were carried out to evaluate the ability of compounds of the invention to bind to and/or activate various nuclear transcription factors, particularly huPPARα (“hu” indicates “human”) and huPPARγ. These studies provide in vitro data concerning efficacy and selectivity of compounds of the invention. Furthermore, binding and cotransfection data for compounds of the invention were compared with corresponding data for marketed compounds that act on either huPPARα or huPPARγ.

db/db mice = experiment: Evaluation of glucose levels in db/db mice; type: in vivo; conditions: Mus musculus, 168 h, 30 mg/kg oral gavage daily for 7 days, 100% = glucose not different from lean values, read-out: Glucose Normalisation
Description: Five week old male diabetic (db/db) mice [C57BlKs/j-m+/+ Lepr(db), Jackson Laboratory, Bar Harbor, Me.] or lean littermates (db+) were housed 6 per cage (10″×20″×8″ with aspen chip bedding) with food (Purina 5015) and water available at all times. After an acclimation period of 2 weeks, animals were individually identified by ear notches, weighed, and bled via the tail vein for determination of initial glucose levels. Blood was collected (100 μl) from unfasted animals by wrapping each mouse in a towel, cutting the tip of the tail with a scalpel, and milking blood from the tail into a heparinized capillary tube (Fisher) balanced on the edge of the bench. Sample was discharged into a heparinized microtainer with gel separator (VWR) and retained on ice. Plasma was obtained after centrifugation at 4° C. and glucose measured immediately. Remaining plasma was frozen until the completion of the experiment, when glucose and triglycerides were assayed in all samples. Animals were grouped based on initial glucose levels and body weights. Beginning the following morning, mice were dosed daily by oral gavage for 7 days using a 20 gauge, 1½″ curved disposable feeding needle. Treatments were test compounds (30 mg/kg), a positive control agent (30 mg/kg) or vehicle [1% carboxymethylcellulose (w/v)/0.25% Tween80 (w/v); 0.3 ml/mouse]. On day 7, mice were weighed and bled (tail vein) 3 hours after dosing. Twenty-four hours after the 7th dose (i.e., day 8), animals were bled again (tail vein). Samples obtained from conscious animals on days 0, 7 and 8 were assayed for glucose. After the 24 hour bleed, animals were weighed and dosed for the final time. Three hours after dosing on day 8, animals were anesthetized by inhalation of isoflurane and blood obtained via cardiac puncture (0.5-0.7 ml). Whole blood was transferred to serum separator tubes, chilled on ice and permitted to clot. Serum was obtained after centrifugation at 4° C. and frozen until analysis for compound levels. After sacrifice by cervical dislocation, the liver, heart and epididymal fat pads were excised and weighed.
The animals dosed with vehicle had average triglycerides values of 170-230 mg/dl, which were reduced by the positive PPARγ control (70-120 mg/dl with a mean reduction of 50%). Male db/db mice were hyperglycemic (average glucose of 680-730 mg/dl on the 7th day of treatment), while lean animals had average glucose levels between 190-230 mg/dl.
Glucose was measured […] using commercially purchased reagents (Sigma #315-500). According to the manufacturers, the procedures were modified from published work (McGowan, M. W., Artiss, J. D., Strandbergh, D. R. & Zak, B. Clin Chem, 20:470-5 (1974) and Keston, A. Specific colorimetric enzymatic analytical reagents for glucose. Abstract of papers 129th Meeting ACS, 31C (1956).); and depend on the release of a mole of hydrogen peroxide for each mole of analyte, coupled with a color reaction first described by Trinder (Trinder, P. Determination of glucose in blood using glucose oxidase with an alternative oxygen acceptor. Ann Clin Biochem, 6:24 (1969)). The absorbance of the dye produced is linearly related to the analyte in the sample. The assays were further modified in our laboratory for use in a 96 well format. Standards (Sigma #339-11, Sigma #16-11, and Sigma #CC0534 for glucose, triglycerides and total cholesterol, respectively), quality control plasma (Sigma # A2034), and samples (2 or 5 μl/well) were measured in duplicate using 200 μl of reagent. An additional aliquot of sample, pipetted to a third well and diluted in 200 μl water, provided a blank for each specimen. Plates were incubated at room temperature (18, 15, and 10 minutes for glucose, triglycerides and total cholesterol, respectively) on a plate shaker (DPC Micormix 5) and absorbance read at 500 nm (glucose and total cholesterol) or 540 nm (triglycerides) on a plate reader (Wallac Victor 1420). […]

SMILES | huPPARα CTF Efficacy (huPPARα) | inhibition in vivo at 30 mg/kg (db/db mice)
Cc1oc(C2CCCCC2)nc1CCOc1ccc(CC(C)(Oc2cccc(F)c2)C(=O)O)cc1 (centres unmarked) [Example 23, 2-(3-Fluoro-phenoxy)-2-methyl-3-{4-[2-(5-methyl-2-cyclohexyl-oxazol-4-yl)-ethoxy]-phenyl}-propionic acid] | 40% | 97%
Cc1oc(-c2ccccc2)nc1CCOc1ccc(CC(C)(Oc2ccc(Cl)cc2)C(=O)O)cc1 (centres unmarked) [Example 29, 2-(4-Chloro-phenoxy)-2-methyl-3-{4-[2-(5-methyl-2-phenyl-oxazol-4-yl)-ethoxy]-phenyl}-propionic acid] | 65% | 86%
COc1ccc(OC(C)(Cc2ccc(OCCc3nc(-c4cccs4)oc3C)cc2)C(=O)O)cc1 (centres unmarked) [Example 19, 2-Methyl-3-{4-[2-(5-methyl-2-thiophen-2-yl-oxazol-4-yl)-ethoxy]-phenyl}-2-(4-methoxyphenoxy)-propionic acid] | 64% | 95%
Cc1oc(CCc2ccccc2)nc1CCOc1ccc(C[C@](C)(Oc2ccccc2)C(=O)O)cc1 [Example 86, (S)-2-Methyl-3-{4-[2-(5-methyl-2-phenethyl-oxazol-4-yl)-ethoxy]-phenyl}-2-phenoxy-propionic acid] | 24% | 92%
Cc1oc(C2CCCCC2)nc1CCOc1ccc(CC(C)(Oc2ccc(OC(F)(F)F)cc2)C(=O)O)cc1 (centres unmarked) [Example 44, 3-{4-[2-(2-Cyclohexyl-5-methyl-oxazol-4-yl)-ethoxy]-phenyl}-2-methyl-2-(4-trifluoromethoxy-phenoxy)-propionic acid] | 54% | 83%
Cc1oc(-c2cccs2)nc1CCOc1ccc(CC(C)(Oc2cccc(C(C)(C)C)c2)C(=O)O)cc1 (centres unmarked) [Example 25, 2-(3-tert-Butyl-phenoxy)-2-methyl-3-{4-[2-(5-methyl-2-thiophen-2-yl-oxazol-4-yl)-ethoxy]-phenyl}-propionic acid] | 95% | 73%
Cc1ccc(OC(C)(Cc2ccc(OCCc3nc(C4CCCCC4)oc3C)cc2)C(=O)O)cc1 (centres unmarked) [Example 41, 3-{4-[2-(2-Cyclohexyl-5-methyl-oxazol-4-yl)-ethoxy]-phenyl}-2-methyl-2-p-tolyloxy-propionic acid] | 49% | 101%
Cc1oc(-c2cccs2)nc1CCOc1ccc(CC(C)(Oc2ccc(C(F)(F)F)cc2)C(=O)O)cc1 (centres unmarked) [Example 51, 2-Methyl-3-{4-[2-(5-methyl-2-thiophen-2-yl-oxazol-4-yl)-ethoxy]-phenyl}-2-(4-trifluoromethyl-phenoxy)-propionic acid] | 152% | 88%
Cc1oc(-c2cccs2)nc1CCOc1ccc(CC(C)(Oc2ccc(C(C)(C)C)cc2)C(=O)O)cc1 (centres unmarked) [Example 17, 2-Methyl-3-{4-[2-(5-methyl-2-thiophen-2-yl-oxazol-4-yl)-ethoxy]-phenyl}-2-(4-tert-butylphenoxy)-propionic acid] | 129% | 112%
Cc1oc(C2CCCCC2)nc1CCOc1ccc(CC(C)(Oc2ccc(C(C)(C)C)cc2)C(=O)O)cc1 (centres unmarked) [Example 18, 2-Methyl-3-(4-{2-[5-methyl-2-cyclohexylyl-oxazol-4-yl]-ethoxy}-phenyl)-2-(4-tert-butylphenoxy)-propionic acid] | 102% | 110%
Cc1oc(C2(C)CCCCC2)nc1CCOc1ccc(C[C@](C)(Oc2ccc(F)cc2)C(=O)O)cc1 [Example 67, (S)-2-(4-Fluoro-phenoxy)-2-methyl-3-(4-{2-[5-methyl-2-(1-methyl-cyclohexyl)-oxazol-4-yl]-ethoxy}-phenyl)-propionic acid] | 34% | 96%
Cc1oc(C2CCCCC2)nc1CCOc1ccc(CC(C)(Oc2ccc(C(F)(F)F)cc2)C(=O)O)cc1 (centres unmarked) [Example 52, 3-{4-[2-(2-Cyclohexyl-5-methyl-oxazol-4-yl)-ethoxy]-phenyl}-2-methyl-2-(4-trifluoromethyl-phenoxy)-propionic acid] | 108% | 98%
Cc1oc(-c2cccc(Br)c2)nc1CCOc1ccc(CC(C)(Oc2ccccc2)C(=O)O)cc1 (centres unmarked) [Example 8, 3-(4-{2-[2-(3-Bromophenyl)-5-methyloxazol-4-yl]ethoxy}phenyl)-2-methyl-2-phenoxypropionic acid] | 54% | 97%
Cc1ccc(OC(C)(Cc2ccc(OCCc3nc(C4CCCCC4)oc3C)cc2)C(=O)O)cc1C (centres unmarked) [Example 35, 3-{4-[2-(2-Cyclohexyl-5-methyl-oxazol-4-yl)-ethoxy]-phenyl}-2-(3,4-dimethyl-phenoxy)-2-methyl-propionic acid] | 78% | 84%
Cc1oc(-c2cccs2)nc1CCOc1ccc(CC(C)(Oc2cccc(C(F)(F)F)c2)C(=O)O)cc1 (centres unmarked) [Example 71, 2-Methyl-3-{4-[2-(5-methyl-2-thiophen-2-yl-oxazol-4-yl)-ethoxy]-phenyl}-2-(3-trifluoromethyl-phenoxy)-propionic acid] | 142% | 97%
Cc1oc(-c2cccs2)nc1CCOc1ccc(CC(C)(Oc2cccc(F)c2)C(=O)O)cc1 (centres unmarked) [Example 22, 2-(3-Fluoro-phenoxy)-2-methyl-3-{4-[2-(5-methyl-2-thiophen-2-yl-oxazol-4-yl)-ethoxy]-phenyl}-propionic acid] | 51% | 85%
COc1cccc(OC(C)(Cc2ccc(OCCc3nc(C4CCCCC4)oc3C)cc2)C(=O)O)c1 (centres unmarked) [Example 76, 3-{4-[2-(2-Cyclohexyl-5-methyl-oxazol-4-yl)-ethoxy]-phenyl}-2-(3-methoxy-phenoxy)-2-methyl-propionic acid] | 63% | 97%
Cc1oc(C2CCCCC2)nc1CCOc1ccc(CC(C)(Oc2ccc(C3CCCCC3)cc2)C(=O)O)cc1 (centres unmarked) [Example 34, 3-{4-[2-(2-Cyclohexyl-5-methyl-oxazol-4-yl)-ethoxy]-phenyl}-2-(4-cyclohexyl-phenoxy)-2-methyl-propionic acid] | 112% | 80%
Cc1ccc(OC(C)(Cc2ccc(OCCc3nc(-c4cccs4)oc3C)cc2)C(=O)O)cc1C (centres unmarked) [Example 36, 2-(3,4-Dimethyl-phenoxy)-2-methyl-3-{4-[2-(5-methyl-2-thiophen-2-yl-oxazol-4-yl)-ethoxy]-phenyl}-propionic acid] | 70% | 92%
